These results are taken from the SangsterLogP compilation.

For the compound `CCC(=O)OC1(c2ccccc2)CCN(C)CC1C` (stereo not drawn), the logP is 2.43.
The compound `NC1CCc2ccccc2C1O` (stereo not drawn) yielded a lipophilicity (logP) of 0.81.
The figure for `NC1C2CCC1c1ccc(C(F)(F)F)cc1C2` (stereo not drawn) is 3.54.
As to `NC1C2CCC1c1ccccc12` (stereo not drawn), the logP was found to be 2.01.
The compound `NC1C2CCC1c1cc(C(F)(F)F)ccc1C2` (stereo not drawn) registered a logP of 3.45.
To `C[C@H](N)[C@H](O)c1ccccc1` (relative stereo) belongs 0.67.
`CCC(=O)O[C@]1(c2ccccc2)C[C@H](C)N(C)C[C@H]1C`: the logP stood at 3.13.
`NC1C2CCC1c1ccccc1C2` (stereo not drawn) returned a logP of 2.04.
To `C=CCC1CN(C)CCC1(OC(=O)CC)c1ccccc1` (stereo not drawn) belongs 2.97; to `COc1ccccc1/C=C/C(=O)O`, 2.54.
The figure for `Cc1cc(=O)oc2ccc(O[C@@H]3O[C@H](CO)[C@@H](O)[C@H](O)[C@H]3O)cc12` is -0.66; for `CC(=O)OC1(c2ccccc2)CCN(C)C(C)C1C` (stereo not drawn) it is 2.51; for `NC1C2CCC1c1cccc(C(F)(F)F)c1C2` (stereo not drawn) it is 3.41.
The compound `COc1cccc([C@]2(O)CCCC[C@H]2CN(C)C)c1` (relative stereo) had a logP of 2.51.
On to `CCC(=O)OC1(c2ccccc2)CCN(C)C(C)C1C` (stereo not drawn), for which the logP turned out to be 2.97.
As to `O=[N+]([O-])c1ccc(O[C@@H]2O[C@H](CO)[C@H](O)[C@H](O)[C@H]2O)cc1`, the logP is -0.63.
Turning to `OC(c1ccccc1)C(O)c1ccccc1` (stereo not drawn), the logP was found to be 1.91.
To `C=C[C@H]1CN2CC[C@H]1C[C@@H]2[C@@H](O)c1ccnc2ccccc12` belongs 2.68.
